{"source": "patent US20040068015A1", "about": "“Remedies for diseases due to stenotic lesions of blood vessel” (priority 2003, published 2004)", "key": {"smooth muscle cells": {"system": "smooth muscle cells", "conditions": "literature report; cited from earlier work"}, "[1]": {"system": "blood vessel smooth muscle cells", "assay": "Effect to inhibit growth of blood vessel smooth muscle cells (BrdU labeling index), hamster blood vessel stricture model", "type": "in vivo", "conditions": "oral, twice a day, 20 mg/kg/day; 7th day after the injury", "protocol": "(§1) Preparation of Hamster Blood Vessel Stricture Model\n(§2) Male hamsters (Gold, SLC, Japan; 40 to 50 g) were allowed to feed on 0.5% cholesterol feed for 4 weeks to increase the LDL value to 4 to 6 times higher than that of normal hamsters. Each hamster was anesthetized with pentobarbital (50 mg/kg), and its carotid inner membrane was peeled using 2FG catheter (Portex) whose tip had been roughly shaved.\n(2) Effect to Inhibit Growth of Blood Vessel Smooth Muscle Cells\nThe drug to be tested, N-hydroxy-5-ethoxymethyloxy-2(S)-methyl-4(S)-(4-phenoxybenzoyl)aminopentaneamide represented by the above formula (II), was orally administered once before the blood vessel inner membrane injury, and then it was orally administered twice a day (20 mg/kg/day). 5-Bromo-2-deoxy-uridine (BrdU: 50 mg/kg) was injected by subcutaneous injection 1, 8, 16 or 24 hours before taking out the inner membrane-injured carotid from each hamster.\nAfter the carotid injury, the injured blood vessels were taken out on the 1st and 7th days to prepare frozen samples. BrdU positive cells were stained with a mouse monoclonal antibody (SIGMA) and then with a peroxidase-conjugated goat anti-mouse IgG antibody and detected with diaminobenzidine (DAB). […] The BrdU labeling index of intermediate membrane and newly formed inner membrane was calculated by the following formula: [formula]"}, "[2]": {"assay": "Toxicity, single oral administration using rats", "type": "in vivo", "protocol": "The toxicity of the compounds of the present invention is very low and therefore, the compounds may be considered safe for pharmaceutical use. For example, the minimal lethal dose by single oral administration of N-hydroxy-5-ethoxymethyloxy-2(S)-methyl-4(S)-(4-phenoxybenzoyl)aminopentanamide using rats was 2000 mg/kg."}, "[3]": {"system": "blood vessel smooth muscle cells", "assay": "Effect to inhibit migration of blood vessel smooth muscle cells (histone H1 (+) cells), hamster blood vessel stricture model", "type": "in vivo", "conditions": "oral, twice a day, 20 mg/kg/day; 3, 5 and 7th days after carotid injury; in comparison with the control group", "protocol": "as §1, §2\n(3) Effect to Inhibit Migration of Blood Vessel Smooth Muscle Cells\nAdministration of the drug to be tested and BrdU was carried out in the same manner in the above (2).\nThe injured blood vessels were taken out from the hamsters on 3, 5 and 7th days after the carotid injury. Each blood vessel was washed with PBS and put into 0.3% hydrogen peroxide/cold methanol solution. The sample was incubated for 45 minutes in 5% goat serum diluted with 1% BSA-containing PBS to prevent nonselective linkage of protein. This was incubated for 60 minutes in 1% BSA-containing PBS using a histone H1 monoclonal antibody. Thereafter, each section was incubated for 45 minutes using 1% goat anti-mouse IgG antibody diluted with 1% BSA-containing PBS. By measuring the number of histone H1 (+) cells (cells/mm^2), migration of smooth muscle cells from intermediate membrane to inner membrane was evaluated."}}, "data": [{"smiles": "CNC(=O)[C@H](Cc1ccccc1)NC(=O)[C@H](CC(C)C)[C@H](CSc1cccs1)C(=O)NO", "note": "[BB94, 3(S)-(N-hydroxycarbamoyl)-2(R)-isobutyl-4-(2-thienylthio)butynyl-L-phenylalanine methylamide]", "values": [{"measurement": "growth of smooth muscle cells", "setting": "smooth muscle cells", "result": "inhibits migration and growth of smooth muscle cells dose-dependently"}, {"measurement": "migration of smooth muscle cells", "setting": "smooth muscle cells", "result": "inhibits migration and growth of smooth muscle cells dose-dependently"}]}, {"smiles": "CNC(=O)[C@H](Cc1c[nH]c2ccccc12)NC(=O)[C@H](CC(=O)NO)CC(C)C", "note": "[GM6001, 3-(N-hydroxycarbamoyl)-2(S)-isobutylpropionyl-L-tryptophan methylamide]", "values": [{"measurement": "migration of smooth muscle cells", "setting": "smooth muscle cells", "result": "inhibits migration of smooth muscle cells"}]}, {"smiles": "CCOCOC[C@H](C[C@H](C)C(=O)NO)NC(=O)c1ccc(Oc2ccccc2)cc1", "note": "[formula (II), N-hydroxy-5-ethoxymethyloxy-2(S)-methyl-4(S)-(4-phenoxybenzoyl)aminopentaneamide]", "values": [{"measurement": "inhibition of growth of blood vessel smooth muscle cells (BrdU labeling index)", "setting": "[1]", "result": "significantly inhibited"}, {"measurement": "minimal lethal dose", "setting": "[2]", "result": 2000, "unit": "mg/kg"}, {"measurement": "number of smooth muscle cells on the surface of inner membrane (migration; histone H1 (+) cells)", "setting": "[3]", "result": "significantly reduced"}]}]}
